The nature of this data set: logP determination (acidic / neutral). The format is physicochemical.
Setting [1] is: pH 2.3, read-out: log P (pH 2.3).

The source of these data is patent US9199922B2, “Dihalophenoxyphenylamidines and use thereof as fungicides” (BAYER INTELLECTUAL PROPERTY GMBH, priority 2007, dated 2015).

Structures are written as SMILES. Like-named read-outs stand apart in the source and are kept apart here.

Regarding `CCCN(C)C=Nc1cc(C)c(Oc2cc(F)cc(Cl)c2)cc1C` [Compound 11], the logP acidic is reported as 2.39. The logP neutral (neutral) was 6.1.
`CCN(C)C=Nc1cc(C)c(Oc2cc(Cl)cc(Br)c2)cc1C` [Compound 6] returned a logP acidic of 2.56. Under “neutral”, the logP neutral was determined as 6.4.
`Cc1cc(Oc2ccc(Cl)c(I)c2)c(C)cc1N=CN1CCCCC1` [Compound 26]: the logP acidic was found to be 2.52.
With `CCN(C)C=Nc1cc(C)c(Oc2cc(Br)cc(Br)c2)cc1C` [Compound 4], the logP acidic was found to be 2.5. This compound also yielded a logP neutral (neutral) of 6.
The corresponding values for `CCCN(C)C=Nc1cc(C)c(Oc2ccc(Cl)c(Br)c2)cc1C` [Compound 17] are 2.64 and 6.6.
The corresponding values for `CCCN(C)C=Nc1cc(C)c(Oc2cc(F)cc(Br)c2)cc1C` [Compound 14] are 2.37 and 7.4.
In turn, `CCCN(C)C=Nc1cc(C)c(Oc2ccc(Br)c(Br)c2)cc1C` [Compound 38] yielded a logP acidic of 2.45. In addition, under “neutral”, the logP neutral worked out at 6.62.
`CCN(C)C=Nc1cc(C)c(Oc2cc(F)cc(Br)c2)cc1C` [Compound 3] displayed a logP acidic of 2.29. Further, for the setting “neutral”, the logP neutral was determined as 5.8.
`CCN(C)C=Nc1cc(C)c(Oc2ccc(Br)c(F)c2)cc1C` [Compound 32] yielded a logP acidic of 2.2.
The compound `CCN(C)C=Nc1cc(C)c(Oc2ccc3c(c2)CCCC3)cc1C` [Compound 13] gave a logP acidic of 2.37. The compound also displayed a logP neutral (neutral) of 5.7.
`Cc1cc(Oc2cc(F)cc(F)c2)c(C)cc1N=CN1CCCCC1` [Compound 35] returned a logP acidic of 2.03. Under “neutral”, this compound had a logP neutral of 5.79.
The corresponding values for `CCN(C)C=Nc1cc(C)c(Oc2ccc(F)c(Br)c2)cc1C` [Compound 23] are 2.29 and 5.7.
The corresponding values for `CCCN(C)C=Nc1cc(C)c(Oc2cc(F)cc(F)c2)cc1C` [Compound 33] are 2.04 and 5.54.
Take `CCN(C)C=Nc1cc(C)c(Oc2cc(F)cc(I)c2)cc1C` [Compound 19]: the logP acidic came out at 2.4.
Consider `Cc1cc(Oc2cc(F)cc(Br)c2)c(C)cc1N=CN1CC(C)OC(C)C1` (stereo not shown) [Compound 29], for which the logP acidic was found to be 2.59. For the same compound, for the setting “neutral”, the logP neutral was 5.8.
Turning to `Cc1cc(Oc2cc(F)cc(Br)c2)c(C)cc1N=CN(C)CC1CC1` [Compound 40], the logP acidic amounted to 2.25.
With `Cc1cc(Oc2ccc(Cl)c(Cl)c2)c(C)cc1N` [4-(3,4-Dichlorophenoxy)-2,5-dimethylaniline], under setting [1], the logP was 3.51.
The compound `Cc1cc(Oc2cc(F)cc(Cl)c2)c(C)cc1N=CN1CCCCC1` [Compound 9] showed a logP acidic of 2.42. Also, the logP neutral (neutral) was 6.3.
The matching figures for `Cc1cc(Oc2cc(F)cc(Cl)c2)c(C)cc1N=CN1CCCC1` [Compound 10]: 2.26 and 5.6.
The corresponding values for `Cc1cc(Oc2ccc(Br)c(Br)c2)c(C)cc1N=CN1CCCCC1` [Compound 39] are 2.48 and 6.93.
The matching figures for `CCN(C)C=Nc1cc(C)c(Oc2ccc(Br)c(I)c2)cc1C` [Compound 27]: 2.67 and 6.1.
As for `CCCN(C)C=Nc1cc(C)c(Oc2cc(F)cc(I)c2)cc1C` [Compound 20], the logP acidic was 2.61. For the setting “neutral”, this compound came in with a logP neutral of 6.6.
In turn, `Cc1cc(Oc2ccc(Cl)c(Br)c2)c(C)cc1N=CN1CCCC1` [Compound 18] returned a logP acidic of 2.56. The same compound returned a logP neutral (neutral) of 6.6.
In the case of `Cc1cc(Oc2cc(Br)cc(Br)c2)c(C)cc1N=CN(C)C(C)C` [Compound 5], the logP acidic is reported as 2.62. In addition, the logP neutral (neutral) is 6.4.
`Cc1cc(Oc2ccc(Br)c(F)c2)c(C)cc1N=CN1CCCCC1` [Compound 31]: the logP acidic was 2.39.
Regarding `Cc1cc(Oc2cc(Cl)cc(Br)c2)c(C)cc1N=CN(C)C(C)C` [Compound 7], the logP acidic is 2.7. For the setting “neutral”, this compound gave a logP neutral of 6.8.
The corresponding values for `C=CCN(C)C=Nc1cc(C)c(Oc2ccc(Br)c(Br)c2)cc1C` [Compound 37] are 2.24 and 6.3.
The corresponding values for `Cc1cc(Oc2ccc(Cl)c(I)c2)c(C)cc1N=CN(C)C(C)C` [Compound 24] are 2.4 and 6.2.
Compound `CCCN(C)C=Nc1cc(C)c(Oc2cc(F)cc(Br)c2)cc1C` [Compound 28] gave a logP acidic of 2.91. For the setting “neutral”, the logP neutral is 6.9.
The matching figures for `Cc1cc(Oc2cc(F)cc(I)c2)c(C)cc1N=CN1CCCCC1` [Compound 21]: 2.6 and 6.8.
As to `Cc1cc(Oc2cc(F)cc(Br)c2)c(C)cc1N=CN1CCCCC1` [Compound 12], the logP acidic was found to be 2.55. Also, where the note is “neutral”, the logP neutral is on record as 6.5.
Compound `CCN(C)C=Nc1cc(C)c(Oc2ccc(F)c(F)c2)cc1C` [Compound 2] registered a logP acidic of 2.37. The logP neutral (neutral) was determined as 6.2.
The matching figures for `Cc1cc(Oc2ccc(Cl)c(Br)c2)c(C)cc1N=CN1CCCCC1` [Compound 16]: 2.66 and 6.9.
Take `Cc1cc(Oc2cc(F)cc(I)c2)c(C)cc1N=CN1CCCC1` [Compound 22]: the logP acidic is 2.46. For the same compound, the logP neutral (neutral) stood at 6.6.
Take `CCN(C)C=Nc1cc(C)c(Oc2ccc(Cl)c(I)c2)cc1C` [Compound 25]: the logP acidic is given as 2.29.
Regarding `CCN(C)C=Nc1cc(C)c(Oc2ccc(Cl)c(Cl)c2)cc1C` [Compound 30, N-Ethyl-N-methyl-N′-[4-(3,4-dichlorophenoxy)-2,5-dimethylphenyl]formamidine], the logP runs as follows: (neutral, read-out: logP neutral) 6.07; under setting [1], 2.48.
On to `CCN(C)C=Nc1cc(C)c(Oc2cc(F)cc(Cl)c2)cc1C` [Compound 8], for which the logP acidic amounted to 2.21. This compound also came in with a logP neutral (neutral) of 5.6.
`Cc1cc([N+](=O)[O-])c(C)cc1Oc1ccc(Cl)c(Cl)c1` [4-(3,4-Dichlorophenoxy)-2,5-dimethylnitrobenzene]: under “pH 2.3”, the “log P (pH 2.3)” value is on record as 5.19.
`CCN(C)C=Nc1cc(C)c(Oc2ccc(Cl)c(Br)c2)cc1C` [Compound 15] returned a logP acidic of 2.23. Under “neutral”, this compound returned a logP neutral of 6.1.
